Patent publication US20240140986A1, “SYNTHETIC URSOLIC ACID DERIVATIVES AND METHODS OF USE THEREOF” (REATA PHARMACEUTICALS, INC., priority 2021, published 2024)
Read-outs that look alike come from different tables or passages of the source.

Legend:
[1] = tested on: IFNγ-induced NO production in RAW 264.7 cells; assay: Nitric Oxide Suppression Assay (IFNγ-induced NO, Griess nitrite readout); format: cell-based, mouse; conditions: for IC50: Mus musculus; for Avg NO IC50 Relative to RTA402 (fold): Table 2, ratio to RTA402
Method: Tissue Culture: RAW 264.7, a mouse macrophage cell line, was obtained from American Type Culture Collection (Manassas VA) and maintained in the log phase of growth in Roswell Park Memorial Institute Medium 1640 (RPMI 1640) supplemented with 10% heat inactivated fetal bovine serum and 1% penicillin-streptomycin. Cells were cultured and maintained in a humidified incubator at 37° C. under 5% C02. Cells were sub-cultured every 2-4 days. All cell culture supplies were obtained from Life Technologies (Grand Island, NY) and VWR (Radnor, PA).
Nitric Oxide Suppression Assay. RAW 264.7 cells were plated 1 day in advance of experimental treatments at a concentration of 30,000 cells per well onto Falcon-96 well clear bottom plates (Corning, NY) in a total volume of 200 μL per well using RPMI 1640 supplemented with 0.5% fetal bovine serum and 1% penicillin-streptomycin. The next day, cells were pretreated with compounds serially diluted from 1000×stocks. All compounds were dissolved in dimethyl sulfoxide (DMSO) usually at 10 mM stock solutions. Compounds were subsequently diluted in DMSO and RPMI 1640. Each well received a final concentration of 0.1% DMSO. Cells were pretreated for 2 hours and incubation at 37° C., followed by treatment with 20 ng/mL of interferon gamma (R&D Systems, Minneapolis, MN) per well for 24 hours. The next day, a nitrite standard was serially diluted from 100 μM to 1.6 μM in RPMI 1640. Afterwards, 50 μL of cell culture supernatant was transferred from each well into a new Falcon-96 well clear bottom plate. Nitrite was measured as surrogate for nitric oxide using Promega's Griess Detection Kit #G2930 (Madison, WI) which involves the addition of 50 μL of the provided sulfanilamide solution to each well of the transferred cell culture supernatant and standards, followed by a 10-minute incubation at room temperature. Next, 50 μL of the provided N-1-napthylethylenediamine dihydrochloride (NED) solution was added to the sulfanilamide reaction and incubated for 10 minutes at room temperature in the dark. Afterwards, air bubbles were removed using ethanol vapor and absorbance was measured using a Spectramax M2e plate reader with a wavelength set to 525 nm. Viability was assessed using WST-1 cell proliferation reagent from Roche (Basel, Switzerland). After media was removed for the Nitric Oxide suppression assay, 15 μL of WST-1 reagent was added to each well of cells. Plates were briefly mixed on an orbital shaker and the cells were incubated at 37° C. for 30-90 minutes. Absorbance was measured using a Spectramax M2e plate reader with wavelengths set to 440 nm and 700 nm.
For the ability of compounds to suppress the increase in nitric oxide release caused by interferon gamma, the absolute amount of nitrite that was produced in each well was extrapolated from the nitrite standards using a linear regression fit. All values were then normalized to the DMSO-interferon gamma treated wells and plotted as percent nitric oxide. IC50 values were calculated using Excel and/or GraphPad Prism (San Diego, CA).

[2] = tested on: Nrf2 / ARE-dependent luciferase in AREc32 reporter cell line; assay: AREc32 luciferase reporter activation (Nrf2 induction); format: cell-based, human; conditions: for EC (2-fold): Homo sapiens, Arec32; for Relative Avg AREc32 EC2X Relative to RTA402 (fold): ratio to RTA402
Method: Effect on Ludferase Reporter Activation. Nrf2 is a transcription factor that binds to the antioxidant response element (ARE) sequence in the promoter regions of its target genes. AREc32 reporter cell line (derived from human breast carcinoma MCF7 cells) was obtained was from CXR Bioscience Limited (Dundee, UK) and cultured in DMEM (low glucose) supplemented with 10% FBS, 1% penicillin/streptomycin, and 0.8 mg/ml Geneticin (G418). This cell line is stably transfected with a luciferase reporter gene under the transcriptional control of eight copies of the rat GSTA2 ARE sequence (5′-GTGACAAAGCA-3′) (Wang et al., 2006). Expression of Firefly luciferase from this reporter plasmid is controlled by binding of Nrf2 to these ARE sequences. Measurement of ARE-dependent luciferase activity allows quantitative assessment of Nrf2 induction. AREc32 cell line has previously been used in studies characterizing different Nrf2 activators (Dinkova-Kostova & Wang, 2011; Roubalová et al., 2016; Roubalová et al, 2017; Wu et al, 2012).
The effect of several compounds disclosed herein on luciferase reporter activation was assessed in the AREc32 reporter cell line (see Table 10 and Table 11). This cell line is derived from human breast carcinoma MCF-7 cells and is stably transfected with a luciferase reporter gene under the transcriptional control of eight copies of the antioxidant response element from the rat Gsta2 gene, an Nrf2 target gene (Frilling et al., 1990). AREc32 cells were plated in black 96-well plates in 200 μL media at 20,000 cells per well. Twenty-four hours after plating, cells were treated with vehicle (DMSO) or test compounds at concentrations ranging from 0.03 to 1000 nM for nineteen hours. Media was removed and 100 μL of 1:1 mixture of the One-Glo Luciferase assay reagent and culture medium was added to each well. After incubation for 5 min at room temperature, the luminescence signal was measured on a PHERAstar plate reader. The EC2X value was determined using Excel and GraphPad Prism software. The fold increase in luminescence signal for cells treated with each concentration of compound relative to cells treated with vehicle was determined and a dose-response curve was generated. The dose-response curve was fit using nonlinear regression analysis and used to extrapolate the EC2X value. The EC2X value is defined as the concentration of test compound required to increase the luminescence signal 2-fold above levels in vehicle-treated samples.

[3] = RAW264.7, Table 2, RAW 264.7 cells, 2 h pretreatment, 20 ng/mL interferon gamma 24 h, read-out: Avg NO IC50 (nM) (Mean ± SD)
[4] = Table 2, concentration increasing luminescence 2-fold above vehicle, 19 h treatment, read-out: Avg AREc32 EC2X (nM) (Mean ± SD)
[5] = RAW264.7, Table 3, ursolic acid derivatives, read-out: Avg NO IC50 (nM) (Mean ± SD)
[6] = Table 3, ursolic acid derivatives, read-out: Avg ARE EC-2X (nM) (Mean ± SD)
[7] = RAW264.7, Table 3, oleanolic acid derivative analogs, read-out: Avg NO IC50
[8] = Table 3, oleanolic acid derivative analogs, read-out: Avg ARE EC-2X

Compound | IC50 [1, 3] [nM] | Avg NO IC50 Relative to RTA402 (fold) [1] [fold] | IC50 [1, 5] [nM] | IC50 [1, 7] [nM] | EC (2-fold) [2, 4] [nM] | Relative Avg AREc32 EC2X Relative to RTA402 (fold) ([2]; Table 2) | EC (2-fold) [2, 6] [nM] | EC (2-fold) [2, 8] [nM]
C[C@@H]1[C@H]2[C@H]3C(=O)C=C4[C@@]5(C)C=C(C#N)C(=O)C(C)(C)[C@@H]5CC[C@@]4(C)[C@]3(C)CC[C@@]2(NC(=O)C(C)(F)F)CC[C@H]1C [Compound T17] | 15 ± 5.8 | 5.83 ± 1.26 | – | – | 22.9 ± 2.6 | 1.92 ± 0.74 | – | –
C[C@@H]1[C@H]2[C@H]3C(=O)C=C4[C@@]5(C)C=C(C#N)C(=O)C(C)(C)[C@@H]5CC[C@@]4(C)[C@]3(C)CC[C@@]2(N2CCC2=O)CC[C@H]1C [Compound T74] | 21 ± 7.6 | 5.91 ± 0.94 | 21 ± 7.6 | – | 20 ± 2 | 1.67 ± 0.13 | 20 ± 2 | –
CCS(=O)(=O)NC[C@]12CC[C@@H](C)[C@H](C)[C@H]1[C@H]1C(=O)C=C3[C@@]4(C)C=C(C#N)C(=O)C(C)(C)[C@@H]4CC[C@@]3(C)[C@]1(C)CC2 [Compound T32] | 5.34 ± 1.15 | 2.52 ± 1.11 | – | – | 4.2 ± 1.3 | 0.399 ± 0.111 | – | –
Cc1cn(C[C@]23CC[C@@H](C)[C@H](C)[C@H]2[C@H]2C(=O)C=C4[C@@]5(C)C=C(C#N)C(=O)C(C)(C)[C@@H]5CC[C@@]4(C)[C@]2(C)CC3)nn1 [Compound T49] | 11.5 ± 2.6 | 3.77 ± 0.33 | 11.5 ± 2.6 | – | 7.97 ± 0.73 | 0.643 ± 0.116 | 7.97 ± 0.73 | –
C[C@@H]1[C@H]2[C@H]3C(=O)C=C4[C@@]5(C)C6O[C@@]6(C#N)C(=O)C(C)(C)[C@@H]5CC[C@@]4(C)[C@]3(C)CC[C@@]2(NC(=O)C(C)(F)F)CC[C@H]1C (stereo partly drawn) [Compound T100] | 60.6 ± 0.9 | 28.1 ± 9.62 | – | – | 29.4 ± 3.69 | 2.87 ± 0.59 | – | –
C[C@@H]1[C@H]2[C@H]3C(=O)C=C4[C@@]5(C)C=C(C#N)C(=O)C(C)(C)[C@@H]5CC[C@@]4(C)[C@]3(C)CC[C@@]2(c2nc(C3CC3)no2)CC[C@H]1C [Compound T2] | 21.3 ± 7.4 | 9.86 ± 0.83 | 21.3 ± 7.4 | – | 35 ± 2 | 3.41 ± 0.20 | 35 ± 2 | –
CNC(=O)[C@]12CC[C@@H](C)[C@H](C)[C@H]1[C@H]1C(=O)C=C3[C@@]4(C)C=C(C#N)C(=O)C(C)(C)[C@@H]4CC[C@@]3(C)[C@]1(C)CC2 [Compound T85] | 26.8 ± 4.7 | 9.84 ± 1.92 | – | – | 19 ± 3.5 | 1.63 ± 0.17 | – | –
CCNC(=O)CC[C@]12CC[C@@H](C)[C@H](C)[C@H]1[C@H]1C(=O)C=C3[C@@]4(C)C=C(C#N)C(=O)C(C)(C)[C@@H]4CC[C@@]3(C)[C@]1(C)CC2 [Compound T79] | 4.5 ± 1.84 | 1.25 ± 0.13 | – | – | 4.32 ± 0.5 | 0.361 ± 0.028 | – | –
C[C@@H]1[C@H]2[C@H]3C(=O)C=C4[C@@]5(C)C=C(C#N)C(=O)C(C)(C)[C@@H]5CC[C@@]4(C)[C@]3(C)CC[C@@]2(CNS(C)(=O)=O)CC[C@H]1C [Compound T31] | 7.7 ± 3.1 | 2.25 ± 0.49 | – | – | 4.36 ± 0.81 | 0.373 ± 0.071 | – | –
CO/N=C/[C@]12CC[C@@H](C)[C@H](C)[C@H]1[C@H]1C(=O)C=C3[C@@]4(C)C=C(C#N)C(=O)C(C)(C)[C@@H]4CC[C@@]3(C)[C@]1(C)CC2 [Compound T57] | 20.1 ± 6 | 8.81 ± 0.63 | – | – | 34.1 ± 4.98 | 2.73 ± 0.34 | – | –
CNC(=O)NC[C@]12CC[C@@H](C)[C@H](C)[C@H]1[C@H]1C(=O)C=C3[C@@]4(C)C=C(C#N)C(=O)C(C)(C)[C@@H]4CC[C@@]3(C)[C@]1(C)CC2 [Compound T26] | 5.12 ± 2.22 | 1.71 ± 0.70 | 5.12 ± 2.22 | – | 2.23 ± 0.29 | 0.177 ± 0.020 | 2.23 ± 0.29 | –
CC1(C)CC[C@]2(CNC(=O)OC(C)(C)C)CC[C@]3(C)[C@H](C(=O)C=C4[C@@]5(C)C=C(C#N)C(=O)C(C)(C)[C@@H]5CC[C@]43C)[C@@H]2C1 [CC20, reference compound] | – | – | – | 5 | – | – | – | 21.1
CCNC(=O)N[C@]12CC[C@@H](C)[C@H](C)[C@H]1[C@H]1C(=O)C=C3[C@@]4(C)C=C(C#N)C(=O)C(C)(C)[C@@H]4CC[C@@]3(C)[C@]1(C)CC2 [Compound T65] | 25.5 ± 4.1 | 7.42 ± 3.56 | – | – | 12.9 ± 2 | 1.14 ± 0.20 | – | –

The next lines start with results.

IC50 [1, 3] [nM] | Avg NO IC50 Relative to RTA402 (fold) [1] [fold] | IC50 [1, 5] [nM] | IC50 [1, 7] [nM] | Compound | EC (2-fold) [2, 4] [nM] | Relative Avg AREc32 EC2X Relative to RTA402 (fold) ([2]; Table 2) | EC (2-fold) [2, 6] [nM] | EC (2-fold) [2, 8] [nM]
– | – | – | 8.6 | CC1(C)CC[C@]2(CN3NCCC3=O)CC[C@]3(C)[C@H](C(=O)C=C4[C@@]5(C)C=C(C#N)C(=O)C(C)(C)[C@@H]5CC[C@]43C)[C@@H]2C1 [CC54, reference compound] | – | – | – | 11.7
– | – | – | 3.3 | CN(C)Cc1noc([C@]23CCC(C)(C)C[C@H]2[C@H]2C(=O)C=C4[C@@]5(C)C=C(C#N)C(=O)C(C)(C)[C@@H]5CC[C@@]4(C)[C@]2(C)CC3)n1 [CC8, reference compound] | – | – | – | 3.72
– | – | – | 3.8 | Cc1nc([C@]23CCC(C)(C)C[C@H]2[C@H]2C(=O)C=C4[C@@]5(C)C=C(C#N)C(=O)C(C)(C)[C@@H]5CC[C@@]4(C)[C@]2(C)CC3)no1 [CC82, reference compound] | – | – | – | 22.1
– | – | – | 3.2 | CC1(C)CC[C@]2(n3ccnc3)CC[C@]3(C)[C@H](C(=O)C=C4[C@@]5(C)C=C(C#N)C(=O)C(C)(C)[C@@H]5CC[C@]43C)[C@@H]2C1 [CC62, reference compound] | – | – | – | 26.8
